How the values were obtained:
Experiment in all cases: relative viability (nuclei count vs DMSO), 5 days (fraction); higher = more cells survive
DM3189 + Lapatinib = compound: C1CN(CCN1)C2=CC=C(C=C2)C3=CN4C(=C(C=N4)C5=CC=NC6=CC=CC=C56)N=C3 [DM3189] + CS(=O)(=O)CCNCc1ccc(-c2ccc3ncnc(Nc4ccc(OCc5cccc(F)c5)c(Cl)c4)c3c2)o1 [Lapatinib] (partner 2 µM)
Outline: (§1)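 After 5 days of treatment, lung cancer cells in 1536-well plates were fixed and stained in a single step (final 0.05% Triton X-100, 1% formaldehyde, 1 ug/ml Hoechst) and their nuclei counted on 4× images. Treatment had been applied by pin tool the day after seeding as one drug alone or as a fixed anchor-drug dose with five library-drug doses (not always all listed) in √10 steps. Relative viability is the nuclei count of treated wells divided by that of vehicle wells, and values are medians of duplicate plates.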

DM3189 + Bortezomib = compound: C1CN(CCN1)C2=CC=C(C=C2)C3=CN4C(=C(C=N4)C5=CC=NC6=CC=CC=C56)N=C3 [DM3189] + CC(C)C[C@H](NC(=O)[C@H](Cc1ccccc1)NC(=O)c1cnccn1)B(O)O [Bortezomib] (partner 0.002 µM)
Outline: as §1

DM3189 + Pictilisib = compound: C1CN(CCN1)C2=CC=C(C=C2)C3=CN4C(=C(C=N4)C5=CC=NC6=CC=CC=C56)N=C3 [DM3189] + CS(=O)(=O)N1CCN(Cc2cc3nc(-c4cccc5[nH]ncc45)nc(N4CCOCC4)c3s2)CC1 [Pictilisib] (partner 1 µM)
Outline: as §1

DM3189 + OSI-027 = compound: C1CN(CCN1)C2=CC=C(C=C2)C3=CN4C(=C(C=N4)C5=CC=NC6=CC=CC=C56)N=C3 [DM3189] + COc1cccc2cc(-c3nc([C@H]4CC[C@H](C(=O)O)CC4)n4ncnc(N)c34)[nH]c12 [OSI-027] (partner 0.5 µM)
Outline: as §1

DM3189 + Navitoclax = compound: C1CN(CCN1)C2=CC=C(C=C2)C3=CN4C(=C(C=N4)C5=CC=NC6=CC=CC=C56)N=C3 [DM3189] + CC1(C)CCC(c2ccc(Cl)cc2)=C(CN2CCN(c3ccc(C(=O)NS(=O)(=O)c4ccc(N[C@H](CCN5CCOCC5)CSc5ccccc5)c(S(=O)(=O)C(F)(F)F)c4)cc3)CC2)C1 [Navitoclax] (partner 0.5 µM)
Outline: as §1

Cell Line | relative viability (DM3189 + Lapatinib; first compound 0.08 µM) | relative viability (DM3189 + Lapatinib; first compound 0.253 µM) | relative viability (DM3189 + Lapatinib; first compound 0.8 µM) | relative viability (DM3189 + Lapatinib; first compound 2.53 µM) | relative viability (DM3189 + Bortezomib; first compound 0.08 µM) | relative viability (DM3189 + Bortezomib; first compound 0.253 µM) | relative viability (DM3189 + Bortezomib; first compound 0.8 µM) | relative viability (DM3189 + Bortezomib; first compound 2.53 µM) | relative viability (DM3189 + Pictilisib; first compound 0.08 µM) | relative viability (DM3189 + Pictilisib; first compound 0.253 µM) | relative viability (DM3189 + Pictilisib; first compound 0.8 µM) | relative viability (DM3189 + Pictilisib; first compound 2.53 µM) | relative viability (DM3189 + OSI-027; first compound 0.08 µM) | relative viability (DM3189 + OSI-027; first compound 0.253 µM) | relative viability (DM3189 + OSI-027; first compound 0.8 µM) | relative viability (DM3189 + OSI-027; first compound 2.53 µM) | relative viability (DM3189 + Navitoclax; first compound 0.08 µM) | relative viability (DM3189 + Navitoclax; first compound 0.253 µM) | relative viability (DM3189 + Navitoclax; first compound 0.8 µM) | relative viability (DM3189 + Navitoclax; first compound 2.53 µM)
NCI-H650 | 0.992 | 0.593 | 0.765 | 0.521 | 1 | 0.765 | 0.635 | 0.655 | 0.976 | 0.888 | 0.741 | 0.845 | 0.578 | 0.496 | 0.483 | 0.502 |  |  |  | 
NCI-H2023 | 1.1 | 0.739 | 0.503 | 0.286 | 1.12 | 0.961 | 0.823 | 0.514 | 0.26 | 0.24 | 0.201 | 0.235 | 0.428 | 0.388 | 0.295 | 0.398 | 0.992 | 1.04 | 0.909 | 0.842
EPLC-272H | 1.1 | 0.842 | 0.933 | 0.762 | 1.07 | 0.86 | 0.868 | 0.831 | 0.322 | 0.347 | 0.276 | 0.27 | 0.356 | 0.261 | 0.238 | 0.254 | 1.25 | 1.07 | 1.11 | 1.08
NCI-H596 | 1.19 | 1.06 | 0.799 | 0.99 | 1.34 | 0.969 | 1.03 | 1.28 | 0.419 | 0.247 | 0.412 | 0.407 | 0.799 | 0.746 | 0.615 | 0.643 | 1.01 | 1.09 | 0.917 | 1.06
NCI-H3122 | 0.976 | 1.02 | 0.911 | 0.878 | 0.979 | 0.983 | 0.973 | 0.982 | 0.568 | 0.466 | 0.601 | 0.502 | 1.16 | 0.916 | 0.909 | 1.04 | 0.97 | 0.968 | 0.957 | 0.824
NCI-H2087 | 1.27 | 0.871 | 0.846 | 1.06 | 1.1 | 0.774 | 0.768 | 0.736 | 1.06 | 0.808 | 0.675 | 0.818 | 0.718 | 0.462 | 0.449 | 0.601 | 1.09 | 0.933 | 1.04 | 1.08
NCI-H441 |  |  |  |  | 0.656 | 0.604 | 0.447 | 0.645 | 0.51 | 0.563 | 0.42 | 0.409 | 0.747 | 0.602 | 0.451 | 0.486 | 0.567 | 0.431 | 0.615 | 0.62
NCI-H1944 | 0.884 | 0.765 |  | 0.803 |  |  |  |  | 0.405 | 0.336 |  | 0.389 | 0.513 | 0.397 |  | 0.461 | 1.07 | 1.03 |  | 1.15
LC-2-ad | 0.946 | 0.787 | 0.823 | 0.836 | 0.975 | 0.934 | 0.943 | 1.06 | 0.588 | 0.563 | 0.397 | 0.473 | 0.801 | 0.784 | 0.726 | 0.87 | 0.59 | 0.532 | 0.435 | 0.358
NCI-H358 | 0.489 | 0.359 | 0.523 | 0.424 |  |  |  |  | 0.374 | 0.294 | 0.327 | 0.322 | 1.02 | 0.722 | 0.782 | 0.488 |  |  |  | 
NCI-H2170 | 0.277 | 0.256 | 0.256 | 0.268 |  |  |  |  | 0.308 | 0.301 | 0.288 | 0.291 | 0.863 | 0.76 | 0.768 | 0.686 | 0.637 | 0.541 | 0.541 | 0.711
A-427 | 1.08 | 1.03 | 0.983 | 0.929 | 1.12 | 0.962 | 0.876 | 0.97 | 0.866 | 0.677 | 0.617 | 0.865 | 0.59 | 0.377 | 0.403 | 0.461 | 0.937 | 0.936 | 0.893 | 1.13
NCI-H1666 | 0.789 | 0.736 | 0.51 | 0.712 | 0.853 | 0.783 | 0.898 | 0.91 | 0.439 | 0.595 | 0.508 | 0.437 | 1.01 | 0.941 | 1.1 | 1.01 | 1.11 | 1.09 | 0.895 | 1.17
LOU-NH91 | 0.76 | 0.704 | 0.544 | 0.605 | 0.487 | 0.529 | 0.463 | 0.443 | 0.534 | 0.517 | 0.477 | 0.519 | 0.869 | 0.719 | 0.681 | 0.801 | 0.762 | 0.688 | 0.523 | 0.607
ABC-1 | 1.3 | 1.06 |  | 0.931 | 0.364 | 0.272 | 0.244 | 0.23 | 0.838 | 0.636 | 0.757 | 0.631 | 0.603 | 0.353 | 0.492 | 0.497 |  |  |  | 
NCI-H1651 | 1.08 | 0.852 | 0.826 | 0.984 | 1.04 | 0.984 | 0.908 | 0.971 | 0.713 | 0.578 | 0.467 | 0.468 | 0.783 | 0.626 | 0.864 | 0.727 | 1.17 | 1.13 | 1.13 | 0.928
